Experimental data taken from PubChem BioAssay (NCI).
“And” between values parts separate entries of the source, which are not always exact repeats. Identical values can stand only once.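 1) Cells in 96-well plates. 2) Compound, 48 h, 5 concentrations. 3) Linear interpolation between surrounding doses. 4) Unreached endpoint = highest concentration. Abbreviation: GI50, concentration required for 50% inhibition of growth. TGI: concentration producing complete growth inhibition.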

Tests used:
Experiment in all cases: NCI anticancer screen, dose series, 48 h
T-47D breast = tested on: T-47D breast
BT-549 breast = tested on: BT-549 breast
HOP-92 NSCLC = tested on: HOP-92 NSCLC
HCC-2998 colon = tested on: HCC-2998 colon
HL-60(TB) leukemia = tested on: HL-60(TB) leukemia
MDA-N = tested on: MDA-N
MDA-MB-231 breast = tested on: MDA-MB-231 breast
786-0 renal = tested on: 786-0 renal
SNB-75 CNS = tested on: SNB-75 CNS
M19-MEL melanoma = tested on: M19-MEL melanoma
KM20L2 colon = tested on: KM20L2 colon

Row | Compound | TGI (T-47D breast) | TGI (BT-549 breast) | TGI (HOP-92 NSCLC) | TGI (HCC-2998 colon) | TGI (HL-60(TB) leukemia) | TGI (MDA-N) | TGI (MDA-MB-231 breast) | TGI (786-0 renal) | TGI (SNB-75 CNS) | GI50 (T-47D breast) | GI50 (BT-549 breast) | GI50 (MDA-N) | GI50 (M19-MEL melanoma) | TGI (M19-MEL melanoma) | GI50 (SNB-75 CNS) | GI50 (MDA-MB-231 breast) | TGI (KM20L2 colon) | GI50 (HCC-2998 colon) | GI50 (HL-60(TB) leukemia)
1 | Cc1c(Cl)c(=O)oc2cc(OCC(=O)c3ccccc3)ccc12 | > 100 µM | > 100 µM | > 100 µM | > 100 µM | > 100 µM | > 100 µM | 75.4 µM | – | – | – | – | – | – | – | – | – | – | – | –
2 | C[N+]1(C)C2CCC1CC(OC(=O)C(CO)c1ccccc1)C2 (stereo not given) | > 100 µM | > 100 µM | – | – | – | > 100 µM | > 100 µM | > 100 µM | > 100 µM | – | – | – | – | – | – | – | – | – | –
3 | O=C1OC(c2ccccc2)=N/C1=C/c1cccs1 | – | – | > 100 µM | > 100 µM | 44.5 µM | – | – | – | > 100 µM | – | – | – | – | – | – | – | – | – | –
4 | Cc1nc(Cl)c(C)c(Cl)n1 | > 100 µM | > 100 µM | – | > 100 µM | > 68.4 µM | > 100 µM | > 100 µM | > 100 µM | > 100 µM | – | – | – | – | – | – | – | – | – | –
5 | CC(=O)C1(c2ccccc2)CCCN(C)CC1 (stereo not given) | > 100 µM | > 100 µM | > 100 µM | > 100 µM | – | – | > 100 µM | – | > 100 µM | – | – | – | – | – | – | – | – | – | –
6 | Cc1c(N)nc([C@H](CC(N)=O)NC[C@H](N)C(N)=O)nc1C(=O)N[C@H](C(=O)N[C@H](C)[C@@H](O)[C@H](C)C(=O)N[C@H](C(=O)NCCc1nc(-c2nc(C(=O)NCCC[S+](C)C)cs2)cs1)[C@@H](C)O)C(OC1OC(CO)C(O)C(O)C1OC1OC(CO)C(O)C(OC(N)=O)C1O)c1cnc[nH]1 (stereo not given in full) | 24.8 µM and 14.8 µM and 45.9 µM | 23.8 µM and 25 µM and > 100 µM | – | – | – | 24.4 µM and 25 µM and > 100 µM | 25 µM and > 100 µM | – | 6.42 µM and 13.4 µM and 18.8 µM | 5.28 µM and 1.03 µM and 5.77 µM | 6.48 µM and 7.49 µM | 8.86 µM and 23.8 µM | 12.9 µM | 25 µM and 29 µM | 5.98 µM and 1.06 µM | 23.3 µM and 78.8 µM | 24.3 µM and 29 µM | – | –
7 | O=C1CC(n2cccc2)c2cc(Br)sc21 (stereo not given) | > 100 µM | > 100 µM | > 100 µM | – | > 100 µM | > 100 µM | > 100 µM | > 100 µM | > 100 µM | – | – | – | – | – | – | – | – | – | –
8 | CN1CCC23c4ccccc4NC1C21CCN(C)C3Nc2ccccc21 | – | – | 296 µM | > 375 µM | 109 µM | – | – | – | > 375 µM | – | – | – | – | > 375 µM | – | – | > 350 µM | – | –
9 | Cc1c2c(cc3c1[nH]c1ccccc13)C(c1ccc(F)cc1)=NCC2 | – | – | 7.27 µM | 2.8 µM | 1.57 µM | – | – | – | 4.39 µM | – | – | – | – | 5.44 µM | – | – | 5.52 µM | – | –
10 | OC(c1ccc(-c2ccccc2)cc1)(c1ccc(-c2ccccc2)cc1)c1ccc(-c2ccccc2)cc1 | > 100 µM | > 100 µM | – | – | – | > 100 µM | > 100 µM | > 100 µM | – | – | – | – | – | – | – | – | – | – | –
11 | CCCCC1Cc2cc(OC)ccc2-c2nc3cc(OC)ccc3n21 (stereo not given) (tested in a mixture with another compound) | 53.8 µM | 33.3 µM | 17.1 µM | – | 34.9 µM | 27 µM | 25.7 µM | 27.8 µM | – | – | – | – | – | – | – | – | – | – | –
12 | COC1(OC)C[C@H](C)[C@@]23O[C@]24c2cc(O)c5c(c2N[C@H]3C#C/C=C\C#C[C@]14O)C(=O)c1ccccc1C5=O | 0.0774 µM and 0.455 µM | 0.125 µM | 0.00982 µM | 0.0855 µM and 0.0544 µM | 0.00105 µM | 0.139 µM and 0.108 µM | – | 0.0245 µM | 0.00927 µM and 0.0318 µM | 0.0104 µM | – | 0.00836 µM | – | – | 0.0028 µM | 0.0199 µM | – | 0.0197 µM | < 0.001 µM
13 | C=CCOCCCC(=O)C(=[N+]=[N-])C(=O)OC | – | – | > 100 µM | > 100 µM | > 100 µM | – | – | > 100 µM | > 100 µM | – | – | – | – | > 100 µM | – | – | > 100 µM | – | –
14 | O=C1c2scnc2-c2nccc3c2c1nc1ccccc13 | 1.7 µM | 2.94 µM | 4.85 µM | 2.48 µM | – | – | – | – | 1.92 µM | – | – | – | – | – | – | – | – | – | –
15 | Cc1cc(C)n(C(=O)C(C)Sc2nnc(SC(C)C(=O)n3nc(C)cc3C)s2)n1 (stereo not given) | – | > 100 µM | > 100 µM | > 100 µM | > 100 µM | > 100 µM | > 100 µM | > 100 µM | > 100 µM | – | – | – | – | – | – | – | – | – | –
